The text below walks through data of US11986482B2, “Method of promoting antitumor or anti-cancer immunity” (City University of Hong Kong, priority 2021, dated 2024).

“Also recorded” adds a separate entry of the source.

Data set [1] relates to Raw246.7 cells. As to the kind of experiment: Chemokine level in supernatant of Raw246.7 cells. The data set is classed as cell-based. To be noted: in vitro, 1 μM.
For data set [2], the system named is Rab27a-knockout 4T1 cells. As to the kind of experiment: 4T1-shRab27A (Rab27a-knockout) orthotopic tumors in Balb/c mice. The data set is classed as in vivo, mouse. On the procedure:
(§1) Therefore, it is possible that the increased exosomal PD-L1 secretion induced by 6J1 may still suppress the tumor-infiltrating T cell cytotoxicity in vivo, even though 6J1 reduces the cell surface expression level of PD-L1 on the tumor cells. To evaluate the role of exosomal PD-L1 in the tumor microenvironment and tumor progression in mice, inventors knock out Rab27a in 4T1 cells to inhibit the secretion of exosomes. 4T1-shNC or 4T1-shRab27A cells are treated with or without 6J1 (1 μM). The supernatant is collected, and the concentration of extracellular vesicle is determined using a Nanosight nanoparticle analyzer. […] Inventors analyze the plasma membrane levels of PD-L1 in 4T1-shNC or 4T1-shRab27A cells treated with or without 6J1 (1 μM). […] Next, control or Rab27a-knockout 4T1 cells are orthotopically transplanted into syngeneic fat pads of female Balb/c. The mice are randomly divided (n=5 per group) and treated with either buffer or 6J1 (30 mg/kg, daily) via oral gavage. […] Inventors also perform the immunostaining of CD8 and Granzyme B in the tumor sections. […] Since enhanced antitumor immunity leads to increased apoptosis in tumors, inventors assess the levels of cleaved caspase3 (CCA3), one of the markers of apoptosis, in tumor sections as well.

Data set [3] deals with 4T1 mouse mammary carcinoma. Nature of the data set: Orthotopic 4T1 mammary carcinoma model in syngeneic Balb/c mice. The data set is classed as in vivo. To be noted: oral gavage, daily. On the procedure: To determine whether 6J1 can promote anti-cancer immunity in vivo, 4T1 cells are orthotopically transplanted into syngeneic Balb/c mice. The mice are randomly divided into three groups (n=7 per group) and treated with either buffer or 6J1 (15 or 30 mg/kg, daily) via oral gavage. Tumor volume and body weight of mice are measured at the indicated time point. After the tumor reaches the indicated size, the mice are treated with 6J1 (via oral gavage) at different doses (15 mg/kg or 30 mg/kg) daily for 4 weeks. […] The effective dosages of 6J1 in vivo can range from about 0.1 mg/kg to about 300 mg/kg; or from about 1 mg/kg to about 200 mg/kg; or from about 3 mg/kg to about 100 mg/kg, taking into account, for example, activity and toxicity

Data set [4] deals with 4T1 cells. Nature of the data set: Chemokine level in supernatant of 4T1 cells. The data set is classed as cell-based, mouse. The settings on record: in vitro, 1 μM.
Data set [5] deals with PD-L1. As to the kind of experiment: Plasma membrane PD-L1 level in 4T1 cells (flow cytometry). The data set is classed as cell-based, mouse. The settings on record: 1 μM. On the procedure:
The current PD-L1 and PD1 therapies apply PD-L1 or PD1 monoclonal antibodies to block the PD-L1/PD1 signaling, which results in cytotoxic T cells recognizing and killing the tumor cells. […] First, flow cytometry-based quantification of plasma membrane levels of PD-L1 in 4T1 cells treated with or without 6J1 (1 μM) for 24 h. 4T1 cells are treated with or without 6J1 (1 μM) for 24 h. The supernatant is collected, and the concentration of extracellular vesicle is determined using a Nanosight nanoparticle analyzer in FIG. 8b. The exosomes are also collected and subjected to western blot analysis of the EVs marker and PD-L1 in FIG. 8c.
as §1
Finally, inventors assess the combinatory effects of 6J1 with GW4869, an exosome secretion inhibitor, in the aforementioned orthotopic mammary carcinoma mouse models. […]
A general note: In flow cytometry, cells or beads pass a laser one at a time.

Data set [6] deals with HeLa, A549 and MDA-MB-231 cell lines. Nature of the data set: Cytotoxicity, Hochest 33342 cell number. The data set is classed as cell-based. To be noted: 24 h or 48 h. On the procedure: (§2) The inventors also test the cytotoxicity of 6J1 in several cancer cell lines, HeLa, A549 and MDA-MB-231 cell lines. Cells are grown in 96-well plates in triplicate and treated with or without 6J1 at the concentrations of 0, 0.01, 0.1, 1, 10 and 100 μM indicated for 24 h or 48 h. They are then stained with propidium iodide (PI) or Hochest 33342 to measure the cell death ratio and cell number, respectively. […] Inventors also test the cytotoxicity of 6J1 in 4T1 cells. 4T1 cells are plated in 96-well plates in triplicate and treated with or without 6J1 at the concentrations of 0, 0.01, 0.1, 1, 5, 10, 20, 40, 80 and 100 μM indicated for 24 h or 48 h. The cell viability was then quantified via the MTT assay.

Data set [7] in a line: Subchronic toxicity in Balb/C mice, 4 weeks oral. The data set is classed as in vivo, mouse. The settings on record: 30 mg/kg per day. The method, then: Last, inventors investigate the in vivo toxicity of 6J1 in mice. 6-week-old Balb/C mice are treated with […] (PEG400/Ethanol/tween80, 1:1:1) or 6J1 (30 mg/kg, per day) via oral route for 4 weeks. Clinical observations, e.g., food consumption, body weight changes, and ophthalmic exams, are performed every three days. Tissue weight index (tissue weight/body weight×100%) are measured. […] 6J1 has no effects on mouse weight gain and weights of various organs (FIGS. 18a and 18b). At the end of experiment, the blood is collected from mice in each group for AST, ALT, and ALP measurement. The mice are then sacrificed, and the major organs are isolated, examined, and subjected to H&E staining.

Data set [8] has as its system 4T1 cells. As to the kind of experiment: Cell viability of 4T1 cells, MTT assay. The data set is classed as cell-based. The settings on record: ≤1 μM, 24 h or 48 h. The method, then: as §2
A general note: Formazan colour is commonly taken as a measure of viable cells.

[9] abbreviates: Rab27a-knockout 4T1 cells, 6J1 30 mg/kg, daily, oral gavage.
[10] abbreviates: Rab27a-knockout 4T1 cells, 6J1 30 mg/kg, daily, oral gavage, 30 mg/kg.
Setting [11] is: isolated tumor-infiltrating lymphocytes.

With `OCCOCCN(c1ccccc1)c1nc(N/N=C/c2cccc(I)c2)nc(N2CCOCC2)n1` [Compound 6J1], the “secretion of various chemokines from Raw246.7 cells” value in data set [1] was “markedly induces the secretion of various chemokines”. In addition, in data set [2] (setting [9]), the “activated tumor-infiltrating CD8+ T cell population and expression of IFN-γ vs other groups” value is on record as “significantly increased”; the “tumor growth and tumor burden vs other groups” value is “significantly smaller”. Moreover, in data set [2] (setting [10]), the “cleaved caspase3 (CCA3) apoptotic signals in tumors vs other groups” value is “Stronger clustered apoptotic signals” and the “infiltrated CD8+ T cells in tumor sections (immunostaining) vs other groups” value was “More infiltrated CD8+ T cells are detected; also recorded: more infiltrated CD8^+ T cells are detected”. The “overall survival of mice bearing orthotopic 4T1 tumors vs other groups” value in data set [2] (combination of Rab27a knockout and 6J1 treatment) is recorded as “substantially prolongs the overall survival”. In data set [3] (30 mg/kg), the “cell surface expression of PD-L1 in the primary tumors” value is recorded as “down-regulated”. Also, the tumor growth entry in data set [3] (30 mg/kg, 4 weeks) is on record as “significantly decreases the tumor growth”. Also, the “body weight of mice” value in data set [3] (15 or 30 mg/kg, 4 weeks) is listed as “does not change the body weight of mice”. Moreover, in data set [3] (setting [11]), the “expression of IFN-γ in CD8+ T cells” value is “little effect” and the “tumor-infiltrating CD8+ T cell populations” value is recorded as “significantly increases the tumor infiltrating CD8+ T cell populations; also recorded: significantly increases the tumor-infiltrating CD8+ T cell populations”. In addition, the “secretion of various chemokines from 4T1 cells” value in data set [4] is reported as “markedly induces the secretion of various chemokines”. For the same molecule, the “6J1-induced decrease of cell surface PD-L1 levels” value in data set [5] (4T1-shRab27A cells) is on record as “does not influence the 6J1-induced decrease of cell surface PD-L1 levels”. For the same molecule, in data set [5] (4T1 cells, 24 h), the “level of cell surface PD-L1” value is “decreases the level of cell surface PD-L1”. The “cell proliferation (cell number)” value in data set [6] (0.01-100 μM) is “inhibits cell proliferation in a concentration-dependent manner”. Further, in data set [6] (≤1 μM, several cell types), the “cell proliferation at effective concentrations” value is listed as “only subtly inhibits cell proliferation”. Moreover, in data set [7], the behavior result is “no signs of behavior abnormality”; the “liver function test (AST, ALT, ALP in blood)” value is “no apparent changes in liver function test”; the mouse weight gain entry is reported as “no effects”; the “pathological changes in major organs (H&E staining)” value was “no signs of pathological changes in major organs”. In addition, the “weights of various organs (tissue weight index)” value in data set [7] is given as “no effects”. For the same molecule, in data set [8], the “proliferation of 4T1 cells” value is on record as “little effect”.
